The target of data set [1] is T1, Cytochrome P450 11B1, mitochondrial (Homo sapiens, UniProt P15538).
T1 sequence (P15538 whole entry): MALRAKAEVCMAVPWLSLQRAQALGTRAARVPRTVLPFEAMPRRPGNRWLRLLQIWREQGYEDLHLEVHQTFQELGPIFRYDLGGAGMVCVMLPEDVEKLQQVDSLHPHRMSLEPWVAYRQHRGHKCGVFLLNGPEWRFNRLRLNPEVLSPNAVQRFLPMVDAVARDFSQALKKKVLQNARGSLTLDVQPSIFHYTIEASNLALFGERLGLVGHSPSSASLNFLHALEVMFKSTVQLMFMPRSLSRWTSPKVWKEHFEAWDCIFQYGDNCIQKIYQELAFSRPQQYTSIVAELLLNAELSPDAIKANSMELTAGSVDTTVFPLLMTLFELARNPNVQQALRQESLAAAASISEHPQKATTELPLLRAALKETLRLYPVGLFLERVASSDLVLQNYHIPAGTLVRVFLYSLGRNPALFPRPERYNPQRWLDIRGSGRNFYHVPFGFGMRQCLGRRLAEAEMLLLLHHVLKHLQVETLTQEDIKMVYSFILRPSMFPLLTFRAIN
The experiment in a line: Inhibition of human CYP11B1 expressed in hamster V79 MZ cells using [3H] 11 deoxycorticosterone as substrate by HPLC radioflow detector.

Data set [2] addresses T2, Cytochrome P450 11B2, mitochondrial (Homo sapiens, UniProt P19099).
T2 sequence (P19099 whole entry): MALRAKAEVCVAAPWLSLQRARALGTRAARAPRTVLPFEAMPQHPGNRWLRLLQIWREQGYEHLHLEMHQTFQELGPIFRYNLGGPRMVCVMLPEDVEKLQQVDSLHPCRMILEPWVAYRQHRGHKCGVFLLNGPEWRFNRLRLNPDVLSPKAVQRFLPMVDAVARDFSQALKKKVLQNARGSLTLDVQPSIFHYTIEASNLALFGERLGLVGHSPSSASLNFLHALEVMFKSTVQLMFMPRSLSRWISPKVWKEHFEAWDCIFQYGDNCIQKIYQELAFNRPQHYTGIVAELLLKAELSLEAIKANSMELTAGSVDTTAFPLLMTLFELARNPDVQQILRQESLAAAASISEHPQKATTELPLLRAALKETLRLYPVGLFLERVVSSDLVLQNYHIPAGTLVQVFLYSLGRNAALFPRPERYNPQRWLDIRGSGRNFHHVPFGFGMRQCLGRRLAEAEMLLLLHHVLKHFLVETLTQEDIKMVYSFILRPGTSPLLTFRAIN
The experiment in a line: Inhibition of human CYP11B2 expressed in hamster V79 MZ cells using [3H] 11 deoxycorticosterone as substrate by HPLC radioflow detector.

Our source for the IC50 values is BindingDB's records for doi:10.1021/ml100283h (2011).

`c1ccc(-c2ccc(Cn3ccnc3)cn2)cc1` [5-((1H-imidazol-1-yl)methyl)-2-phenylpyridine]: the IC50 in data set [1] is 152 nM; in data set [2], 2770 nM.

As usually defined, the IC50 is the concentration at which inhibition is half-maximal. A higher IC50 goes with a need for much substance.
